Experimental data from patent US8735322B2, “Herbicides” (Syngenta Limited, priority 2008, dated 2014).

What was measured:
Format in all cases: in vivo
Avena fatua (AVEFA) [1] = experiment: Example B post-emergence herbicidal activity, glasshouse pot test; settings: 312 h, rate 1000 g/ha, evaluated after 13 days, read-out: herbicidal damage AVEFA (100=total damage to plant; 0=no damage to plant)
Procedure: (§1) Seeds of a variety of test species were sown in standard soil in pots. After cultivation for one day (pre-emergence) or after 8 days cultivation (post-emergence) under controlled conditions in a glasshouse (at 24/16° C., day/night; 14 hours light; 65% humidity), the plants were sprayed with an aqueous spray solution derived from the formulation of the technical active ingredient in acetone/water (50:50) solution containing 0.5% Tween 20 (polyoxyethelyene sorbitan monolaurate, CAS RN 9005-64-5). The test plants were then grown in a glasshouse under controlled conditions in a glasshouse (at 24/16° C., day/night; 14 hours light; 65% humidity) and watered twice daily. After 13 days for pre and post-emergence, the test was evaluated (100=total damage to plant; 0=no damage to plant). Alopecurus myosuroides (ALOMY), Avena fatua (AVEFA), Setaria faberi (SETFA), Echinochloa crus-galli (ECHCG), Solanum nigrum (SOLNI) and Amaranthus retroflexus (AMARE) Post-Emergence Activity

[2] = tested on: Echinochloa crus-galli (ECHCG); experiment: as above; settings: 312 h, rate 1000 g/ha, evaluated after 13 days, read-out: herbicidal damage ECHCG (100=total damage to plant; 0=no damage to plant)
Procedure: as §1

[3] = tested on: Alopecurus myosuroides (ALOMY); experiment: as above; settings: 312 h, rate 1000 g/ha, evaluated after 13 days, read-out: herbicidal damage ALOMY (100=total damage to plant; 0=no damage to plant)
Procedure: as §1

[4] = tested on: Amaranthus retroflexus (AMARE); experiment: as above; settings: 312 h, rate 1000 g/ha, evaluated after 13 days, read-out: herbicidal damage AMARE (100=total damage to plant; 0=no damage to plant)
Procedure: as §1

Solanum nigrum (SOLNI) [5] = experiment: as above; settings: 312 h, rate 1000 g/ha, evaluated after 13 days, read-out: herbicidal damage SOLNI (100=total damage to plant; 0=no damage to plant)
Procedure: as §1

Setaria faberi (SETFA) [6] = experiment: as above; settings: 312 h, rate 1000 g/ha, evaluated after 13 days, read-out: herbicidal damage SETFA (100=total damage to plant; 0=no damage to plant)
Procedure: as §1

Avena fatua (AVEFA) [7] = experiment: Example B pre-emergence herbicidal activity, glasshouse pot test; settings: 312 h, rate 1000 g/ha, evaluated after 13 days, read-out: herbicidal damage AVEFA (100=total damage to plant; 0=no damage to plant)
Procedure: as §1, with “Pre-Emergence” for “Post-Emergence”

[8] = tested on: Echinochloa crus-galli (ECHCG); experiment: as above; settings: 312 h, rate 1000 g/ha, evaluated after 13 days, read-out: herbicidal damage ECHCG (100=total damage to plant; 0=no damage to plant)
Procedure: as §1, with “Pre-Emergence” for “Post-Emergence”

[9] = tested on: Alopecurus myosuroides (ALOMY); experiment: as above; settings: 312 h, rate 1000 g/ha, evaluated after 13 days, read-out: herbicidal damage ALOMY (100=total damage to plant; 0=no damage to plant)
Procedure: as §1, with “Pre-Emergence” for “Post-Emergence”

[10] = tested on: Amaranthus retroflexus (AMARE); experiment: as above; settings: 312 h, rate 1000 g/ha, evaluated after 13 days, read-out: herbicidal damage AMARE (100=total damage to plant; 0=no damage to plant)
Procedure: as §1, with “Pre-Emergence” for “Post-Emergence”

Solanum nigrum (SOLNI) [11] = experiment: as above; settings: 312 h, rate 1000 g/ha, evaluated after 13 days, read-out: herbicidal damage SOLNI (100=total damage to plant; 0=no damage to plant)
Procedure: as §1, with “Pre-Emergence” for “Post-Emergence”

Setaria faberi (SETFA) [12] = experiment: as above; settings: 312 h, rate 1000 g/ha, evaluated after 13 days, read-out: herbicidal damage SETFA (100=total damage to plant; 0=no damage to plant)
Procedure: as §1, with “Pre-Emergence” for “Post-Emergence”

| Compound | pest or weed control at 1000 g/ha (Avena fatua (AVEFA) [1]) [%] | pest or weed control at 1000 g/ha [2] [%] | pest or weed control at 1000 g/ha [3] [%] | pest or weed control at 1000 g/ha [4] [%] | pest or weed control at 1000 g/ha (Solanum nigrum (SOLNI) [5]) [%] | pest or weed control at 1000 g/ha (Setaria faberi (SETFA) [6]) [%] | pest or weed control at 1000 g/ha (Avena fatua (AVEFA) [7]) [%] | pest or weed control at 1000 g/ha [8] [%] | pest or weed control at 1000 g/ha [9] [%] | pest or weed control at 1000 g/ha [10] [%] | pest or weed control at 1000 g/ha (Solanum nigrum (SOLNI) [11]) [%] | pest or weed control at 1000 g/ha (Setaria faberi (SETFA) [12]) [%] |
| --- | --- | --- | --- | --- | --- | --- | --- | --- | --- | --- | --- | --- |
| Cc1ccc(-c2cccnc2OCC2CC2)cc1C1=C(O)CC(CC2CCOCC2)CC1=O (stereo not drawn) [Compound A-27] | 0 | 30 | 10 | 0 | 0 | 60 | 0 | 0 | 0 | 0 | 0 | 0 |
| Cc1ccc(-c2ccc(OC(F)(F)F)cc2)cc1C1=C(O)CC(CC2CCOCC2)CC1=O (stereo not drawn) [Compound A-29] | 0 | 60 | 10 | 70 | 20 | 60 | 0 | 20 | 20 | 50 | 30 | 0 |
| CCc1cc(-c2ccc(C)cc2)cc(CC)c1C1=C(O)CC(CC2CCOCC2)CC1=O (stereo not drawn) [Compound A-33] | 70 | 100 | 30 | 60 | 70 | 80 | 60 | 90 | 50 | 0 | 0 | 100 |
| CCc1cc(-c2ccc(Cl)cc2)cc(CC)c1C1=C(O)CC(CC2CCOCC2)CC1=O (stereo not drawn) [Compound A-34] | 100 | 100 | 50 | 20 | 0 | 90 | 60 | 100 | 50 | 0 | 0 | 90 |
| Cc1ccc(-c2cc(C)c(C3=C(O)CC(CC4CCOCC4)CC3=O)c(C)c2)cc1 (stereo not drawn) [Compound A-36] | 70 | 100 | 70 | 0 | 50 | 100 | 40 | 90 | 60 | 0 | 0 | 100 |
| Cc1cc(-c2ccc(Cl)cc2)cc(C)c1C1=C(O)CC(CC2CCOCC2)CC1=O (stereo not drawn) [Compound A-37] | 100 | 100 | 90 | 40 | 70 | 100 | 90 | 100 | 80 | 20 | 20 | 100 |
| Cc1cc(-c2ccc(C(F)(F)F)cc2)cc(C)c1C1=C(O)CC(CC2CCOCC2)CC1=O (stereo not drawn) [Compound A-38] | 40 | 90 | 30 | 0 | 20 | 100 | 20 | 100 | 30 | 0 | 0 | 100 |
| Cc1ccc(-c2ccc(F)cc2)cc1C1=C(O)CC(CC2CCOCC2)CC1=O (stereo not drawn) [Compound A-39] | 80 | 80 | 60 | 0 | 0 | 90 | 0 | 0 | 0 | 0 | 0 | 0 |
| Cc1ccc(-c2ccc(F)c(F)c2)cc1C1=C(O)CC(CC2CCOCC2)CC1=O (stereo not drawn) [Compound A-40] | 70 | 100 | 70 | 30 | 0 | 90 | 0 | 30 | 0 | 0 | 0 | 0 |
| Cc1cc(-c2ccccc2)cc(C)c1C1=C(O)CC(CC2CCOCC2)CC1=O (stereo not drawn) [Compound A-41] | 70 | 100 | 90 | 40 | 40 | 100 | 80 | 100 | 90 | 0 | 0 | 100 |
| CCc1ccc(-c2ccc(Cl)cc2)cc1C1=C(O)CC(CC2OCCO2)CC1=O (stereo not drawn) [Compound A-45] | 100 | 100 | 100 | 0 | 10 | 100 | 70 | 100 | 60 | 0 | 100 | 90 |
| Cc1ccc(-c2ccc(Cl)cc2)cc1C1=C(O)CC(CC2OCCO2)CC1=O (stereo not drawn) [Compound A-46, 2-(4′-Chloro-4-methylbiphenyl-3-yl)-5-[1,3]dioxolan-2-ylmethylcyclohexane-1,3-dione] | 80 | 100 | 90 | 20 | 20 | 90 | 40 | 40 | 20 | 0 | 0 | 90 |
| Cc1cc(-c2ccc(C)c(C3=C(O)CC(CC4CCOCC4)CC3=O)c2)ccc1F (stereo not drawn) [Compound A-48] | 60 | 80 | 60 | 10 | 0 | 80 | 0 | 20 | 0 | 0 | 0 | 20 |
